Data as given in article PMC5515887, “Ruthenium-conjugated chrysin analogues modulate platelet activity, thrombus formation and haemostasis with enhanced efficacy” (Scientific Reports, 2017).
Where two headings read alike, the source gives them in different places.

Columns and labels:
[1] = system: human platelet-rich plasma (PRP); assay: CRP-XL-induced platelet aggregation in human platelet-rich plasma (optical aggregometry); assay type: cell-based
Experimental: Therefore, to determine the effects of various concentrations of chrysin and its derivatives in the presence of plasma proteins, aggregation assays were performed using human platelet-rich plasma (PRP) and 0.5 μg/mL CRP-XL.
Figure 3 Impact of chrysin and its derivatives on platelet activation in platelet-rich plasma. […] The platelet aggregation was monitored for 5 minutes. The traces shown are representative of three separate experiments.
The preparation of human platelets and aggregation assays were performed using standard protocols as described by us previously, [16]. Briefly, human blood was collected in 3.2% citrate containing vacutainers via venepuncture from healthy, aspirin-free individuals with informed consent in accordance with the methods approved by the University of Reading Research Ethics Committee. All methods were performed in accordance with the relevant institutional and national guidelines and regulations. Blood samples were centrifuged at 102 g for 20 minutes at room temperature to separate the PRP, which was used in aggregation, flow cytometry, static platelet adhesion, calcium mobilisation and clot retraction assays. For the preparation of washed platelets, 50 mL of blood samples were mixed with 7.5 mL of ACD (acid citrate dextrose) (20 g/L glucose, 25 g/L sodium citrate and 15 g/L citric acid) and centrifuged at 102 g for 20 minutes at room temperature. The PRP was carefully aspirated from the other blood cells prior to mixing with 3 mL of ACD and centrifuging at 1413 g for 10 minutes at room temperature. The resulting platelet pellet was re-suspended in modified Tyrodes-HEPES buffer (2.9 mM KCl, 134 mM NaCl, 0.34 mM Na2HPO4.12H20, 1 mM MgCl2, 12 mM NaHCO3, 20 mM HEPES, pH 7.3) and washed by centrifuging again at 1413 g for 10 minutes. The resulting platelet pellet was suspended in modified Tyrodes-HEPES buffer at a density of 4 × 10^8 cells/mL for aggregation, dense granule secretion, cellular uptake studies and calcium mobilisation assays. Human platelet aggregation was performed using CRP-XL as an agonist in the presence and absence of various concentrations of chrysin and its synthetic derivatives by optical aggregometry. A vehicle control [DMSO at a concentration of less than 0.1% (v/v)] was included in all the experiments. Dense granule secretion in platelets was determined by measuring the ATP release using the luciferin-luciferase reagent by lumi-aggregometry (Chrono-Log, USA). SDS-PAGE and immunoblotting analysis were performed using standard protocols. The rabbit anti-phospho-specific antibodies for human AKT pS473, FAK pY397 and Src pY527 were obtained from Abcam, UK and rabbit anti-human 14-3-3ζ (Santa Cruz Biotechnology, USA) was used to detect protein 14-3-3ζ as a loading control in immunoblot assays. The Cy5-conjugated goat anti-rabbit IgG (Life technologies, UK) was used as the secondary antibody.

[2] = system: platelet adhesion (integrins αIIbβ3 and α2β1); assay: Static platelet adhesion assay on collagen, CRP-XL and fibrinogen; assay type: cell-based, human; settings: PRP; static conditions; in the presence and absence of integrilin (4 µM)
Experimental: Integrins αIIbβ3 and α2β1 play critical roles in platelet adhesion to different matrix proteins such as fibrinogen and collagen, respectively.
Micro titre plates (96 well) were coated with 1 μg/100 μL/well of fibrinogen, collagen or CRP-XL followed by incubation at 4 °C for overnight. Following the removal of unbound proteins/peptide, the wells were blocked with 1% bovine serum albumin in modified Tyrodes-HEPES buffer for 1 hour. The plates were then washed three times with modified Tyrode’s-HEPES buffer prior to adding human PRP (1 × 10^8 cells/mL, 50 μL/well) and incubated at room temperature for 1 hour. Non-adhered platelets were discarded and then the wells were washed with modified Tyrodes-HEPES buffer. Citrate lysis buffer (100 μL/well) was added and incubated for 1 hour at room temperature. Finally, 100 μL of 2 M NaOH was added to all the wells to stop the reaction and the absorbance was measured at 405 nm using a Fluostar Optima spectrofluorimeter (BMG Labtech, Germany). Experiments were performed both in the absence and presence of integrilin (4 μM) (an antagonist for integrin αIIbβ3).

[3] = system: FAK; assay: Immunoblot of FAK phosphorylation at Y397 in CRP-XL activated platelets; assay type: cell-based, human; settings: washed platelets, CRP-XL 0.5 μg/mL
Text: (§1) The calcium traces (Ai and Bi) shown are representative of three separate experiments. […] The platelets were lysed and used for immunoblot analysis to detect the level of AKT phosphorylation at residue S473, FAK phosphorylation at Y397 and phosphorylation of Src at Y527. The level of 14-3-3ζ protein was detected as a loading control. The cropped images of the blots shown here are representative of three separate experiments. The uncropped full length blots are presented in Supplementary Information (Figure S8).
(§2) Calcium mobilisation is associated with phosphoinositide 3-kinase (PI3K) signalling in platelets. Protein kinase B (AKT) is a downstream effector of PI3K and a key marker for the PI3K/AKT signalling pathway. […]
(§3) The preparation of human platelets and aggregation assays were performed using standard protocols as described by us previously, [16]. Briefly, human blood was collected in 3.2% citrate containing vacutainers via venepuncture from healthy, aspirin-free individuals with informed consent in accordance with the methods approved by the University of Reading Research Ethics Committee. […] Dense granule secretion in platelets was determined by measuring the ATP release using the luciferin-luciferase reagent by lumi-aggregometry (Chrono-Log, USA). […]

[4] = biological target: T1, human serum albumin (HSA) (Homo sapiens, UniProt P02768); assay: HSA binding assay (TRANSIL XL HSA binding kit)
T1 construct: purchased Sovicell, Germany
Experimental: HSA binding assay was performed using TRANSIL^XL binding kit (Sovicell, Germany) according to the manufacturer’s protocol. […] The plate was then incubated on a plate shaker at 100 g for 12 minutes followed by centrifugation for 10 minutes at 750 g.

[5] = system: Src; assay: Immunoblot of Src phosphorylation at Y527 in CRP-XL activated platelets; assay type: cell-based, human; settings: washed platelets, CRP-XL 0.5 μg/mL
Text: as §1, §2, §3

[6] = system: AKT; assay: Immunoblot of AKT phosphorylation at S473 in CRP-XL activated platelets; assay type: cell-based, human; settings: washed platelets, CRP-XL 0.5 μg/mL
Text: as §1, §2, §3

[7] = system: outside-in signalling by integrin αIIbβ3; assay: Clot retraction assay (outside-in signalling by integrin αIIbβ3); assay type: cell-based, human; settings: PRP; 50 μM compound; 1 U/mL thrombin; three hours
Experimental: R represents ‘resting’ platelets.
Following fibrinogen binding, integrin αIIbβ3 triggers signalling into the platelets in order to induce clot retraction and promote wound healing. This also represents a late downstream signalling event in the platelet activation process. To determine whether chrysin and its derivatives affect outside-in signalling by integrin αIIbβ3, a clot retraction assay was performed. […] At three hours, the clot obtained with the vehicle control [0.1% (v/v) DMSO] retracted to around 50 mg.
PRP (200 µL) was mixed with 5 µL of red blood cells and the final volume was made to 950 µL with modified Tyrodes-HEPES buffer in the presence and absence of various concentrations of chrysin or its synthetic derivatives. Clot formation was initiated by adding 1 U/mL (50 µL) thrombin. A glass capillary was placed in middle of the tube and the clot retraction was observed over a period of 3 hours at room temperature. Clot weight was measured as a marker for clot retraction after 3 hours.

T1 sequence (P02768 25-609): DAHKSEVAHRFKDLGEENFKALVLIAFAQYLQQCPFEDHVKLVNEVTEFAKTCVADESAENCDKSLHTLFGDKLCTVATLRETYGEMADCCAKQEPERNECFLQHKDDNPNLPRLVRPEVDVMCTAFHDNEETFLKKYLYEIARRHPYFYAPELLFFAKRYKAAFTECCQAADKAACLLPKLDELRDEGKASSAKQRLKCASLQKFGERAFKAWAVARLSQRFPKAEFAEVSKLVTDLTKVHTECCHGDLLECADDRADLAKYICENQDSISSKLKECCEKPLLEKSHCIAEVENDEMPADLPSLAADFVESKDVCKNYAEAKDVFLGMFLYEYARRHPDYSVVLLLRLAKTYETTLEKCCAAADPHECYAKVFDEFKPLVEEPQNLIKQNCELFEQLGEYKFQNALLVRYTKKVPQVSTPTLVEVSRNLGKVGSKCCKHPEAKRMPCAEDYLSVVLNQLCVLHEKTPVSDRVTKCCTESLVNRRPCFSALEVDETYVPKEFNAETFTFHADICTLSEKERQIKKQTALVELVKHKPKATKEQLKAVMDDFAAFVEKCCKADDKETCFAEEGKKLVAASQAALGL

`O=c1cc(-c2ccccc2)oc2cc(O)cc(O)c12` [chrysin] was tested, and the “effect on platelet aggregation at lower concentrations” value ([1]; PRP, 6.25 μM and 12.5 μM compound, CRP-XL 0.5 μg/mL) was “did not exhibit significant effects”, the “reduction in platelet aggregation” value ([1]; PRP, 100 μM compound, CRP-XL 0.5 μg/mL) was “around 40%” and the “effect on platelet adhesion to collagen, CRP-XL or fibrinogen” value [2] was “did not affect platelet adhesion”. The “effect on FAK phosphorylation at Y397” value [3] was “inhibited their phosphorylation in a concentration-dependent manner”, the Kd [4] was 1.93 µM and the fraction unbound at 12 min, 50 µM ([4]; human, plasma) was 0.003. The “effect on dephosphorylation of Src at Y527” value [5] was “significant impact on the dephosphorylation of Src at Y527”, the “effect on AKT phosphorylation at S473” value [6] was “inhibited their phosphorylation in a concentration-dependent manner” and the “effect on clot retraction” value [7] was “did not show significant effects”.
With “chlorido [(5-oxo-κO)-7-hydroxy-(2-phenyl)-4H-chromen-4-thionato-κS] (η6-p-cymene)ruthenium(II) [Ru-thio-chrysin]” the “effect on platelet aggregation in PRP” value ([1]; PRP, CRP-XL 0.5 μg/mL) was “significant effect at lower concentrations including 6.25 μM”, the “greater inhibition of platelet function and thrombus formation in vitro than chrysin” value ([1]; physiologically relevant conditions such as platelet-rich plasma and whole blood) was 4 fold and the “effect on platelet adhesion to collagen, CRP-XL or fibrinogen” value [2] was “did not affect platelet adhesion”. The “effect on FAK phosphorylation at Y397” value [3] was “inhibited their phosphorylation in a concentration-dependent manner”, the “fraction bound to plasma (fb)” value ([4]; TRANSIL XL HSA binding kit) was less than 29.6% and the Kd ([4]; TRANSIL XL HSA binding kit, 50 µM compound, read-out: binding affinity (Kd) to HSA) was 1400 µM. For the same compound, the “effect on dephosphorylation of Src at Y527” value [5] was “significant impact on the dephosphorylation of Src at Y527”, the “effect on AKT phosphorylation at S473” value [6] was “inhibited their phosphorylation in a concentration-dependent manner” and the “effect on clot retraction” value [7] was “superior effects in comparison to native chrysin”.
